Test system: Mycobacterium smegmatis
Assay: In vitro Mycobacterium smegmatis growth inhibition assay (suspension turbidity)
Format: cell-based
Conditions: for Inhibitory activity against Mycobacterium smegmatis growth, in words, compared with RMP: versus active control RMP; for IC50: Mycolicibacterium smegmatis, four parameter curve fit of the 96 hours growth data, read-out: IC50 (concentration to inhibit 50% of the Mycobacterium smegmatis growth)

Compound	Inhibitory activity against Mycobacterium smegmatis growth, in words, compared with RMP	IC50 [µM]	% of Celular Growth at 96 hours (concentration 1.23 uM) [%]	% of Celular Growth at 96 hours (concentration 3.70 uM) [%]	% of Celular Growth at 96 hours (concentration 11.11 uM) [%]	% of Celular Growth at 96 hours (concentration 33.33 uM) [%]	% of Celular Growth at 96 hours (concentration 100.00 uM) [%]
3,5-dibromo-2-hydroxybenzaldehyde (2-pyridinyl)hydrazine [Compound no. 42]	superior inhibitory activity	–	–	–	–	–	–
Oc1ccc(Br)cc1C=NNc1ccc2ccccc2n1 [Compound no. 76, 5-bromo-2-hydroxybenzaldehyde 2-quinolinylhydrazone]	better IC50 values than RMP	16.2	118.35	113.44	121.72	43.92	51.50
Cc1cc(NN=Cc2ccccc2O)nc2ccccc12 [Compound no. 77, 2-hydroxybenzaldehyde-(4-methyl-2-quinolinyl)hydrazone]	better IC50 values than RMP	6.59	77.17	57.42	29.14	22.41	34.09

— patent US9809550B2, “Quinolyl hydrazones for the treatment of tuberculosis and related diseases” (TECNIMEDE SOCIEDADE TECNICO-MEDICINAL S.A., priority 2012, dated 2017)
